{"source": "patent US10188693B2", "about": "“Methods for treatment of atherosclerosis” (Stealth BioTherapeutics Corp, priority 2012, dated 2019)", "test_system": "Apoprotein E deficient mice", "test": "Plasma lipid analysis using an autoanalyzer (TC, Trigs, PL, FC, CE by calculation)", "assay_type": "in vivo", "parameters": "TC, plasma / FC, plasma / CE, plasma / Trigs, plasma / PL, plasma / TC / FC / CE / Trigs / PL: unit not given here", "conditions": "for CE: plasma cholesterol ester; for FC: plasma free cholesterol; for PL: plasma phospholipid; for TC: plasma total cholesterol; for Trigs: plasma triglycerides", "from_the_text": "Apoprotein E deficient mice (Jackson Laboratories, 600 Main Street, Bar Harbor, Me.) were used in this study. The mice were male, 7-8 weeks of age, and between 18-20 g in weight. An initial total cholesterol measurement was made on 30 mice, and the mice were grouped into two groups of 15 to match the total cholesterol measurements. Both groups were fed a “western diet” (40 kcal % butterfat, 0.15% [wt/wt] cholesterol, Harlan Teklad diet TD-88137). Starting at t=0, the control group of 15 mice received vehicle only (phosphate buffered saline at pH 7.4), while the test group of 15 mice received aromatic-cationic peptide reconstituted in phosphate buffered saline. Body weights of the mice were recorded weekly, and mortality checks were performed daily.\nThe aromatic-cationic peptide D-Arg-2′6′-Dmt-Lys-Phe-NH2 (sterile lyophilized powder, reconstituted in phosphate buffered saline) was tested. For the 12-week study, test mice received a single, daily dose of the peptide, subcutaneously at 1 mg/kg. Control mice received a single daily dose of vehicle.\nExperimental Protocol/Data Collection. Blood was collected every four weeks (orbital plexis) under isoflurane anesthesia (3%) and blood lipids were determined. Plasma lipid analysis was conducted for both groups at t=0, 4, […], 8, and 12 weeks. Plasma lipid analysis using an autoanalyzer included total cholesterol (TC), triglycerides (Trigs), phospholipids (PL), free cholesterol (FC), and cholesterol ester (CE, by calculation). Gel electrophoresis was used to measure levels of high-density lipoprotein cholesterol (HDL-C), low-density lipoprotein cholesterol (LDL-C), and very low-density lipoprotein cholesterol (VLDL-C).", "key": {"[1]": {"conditions": "Week 0 (t=0, start of dosing), individual mouse of test group"}, "[2]": {"conditions": "Week 0, group average of test group"}, "[3]": {"conditions": "at 4, 8 and 12 week time points, versus vehicle"}, "[4]": {"conditions": "week 4, individual test mouse (sample #16-30), listed as aromatic-cationic peptide"}, "[5]": {"conditions": "week 8, individual test mouse (sample #16-30), listed as aromatic-cationic peptide"}, "[6]": {"conditions": "week 12, AVE of 15 test animals"}, "[7]": {"conditions": "week 12, individual test mouse (sample #16-30), listed as aromatic-cationic peptide"}}, "note": "“And” between values parts separate entries of the source, which are not always exact repeats. Identical values can stand only once."}
{"substance": "D-Arg-2′6′-Dmt-Lys-Phe-NH2", "values": [{"measurement": "FC, plasma", "setting": "[1]", "result": "119 and 121 and 134 (2×) and 110 and 116 and 131 and 129 and 184 and 113 and 139 and 170 and 151 and 159 and 220"}, {"measurement": "PL, plasma", "setting": "[1]", "result": "267 (3×) and 308 and 255 and 306 and 298 and 369 and 238 and 320 and 313 and 332 and 343 and 338 and 413"}, {"measurement": "TC, plasma", "setting": "[1]", "result": "302 (2×) and 318 and 376 and 323 and 335 and 369 and 550 and 309 and 409 and 431 and 552 and 457 and 490 and 808"}, {"measurement": "Trigs, plasma", "setting": "[1]", "result": "75 and 88 (3×) and 117 and 96 and 71 and 138 and 167 and 136 and 151 and 191 and 188 and 154 and 353"}, {"measurement": "CE, plasma", "setting": "Week 0 (t=0, start of dosing), individual mouse of test group, by calculation", "result": "183 and 197 and 242 and 192 and 207 and 204 and 240 and 366 and 196 and 270 and 297 and 382 and 306 and 331 and 588"}, {"measurement": "FC, plasma, AVE", "setting": "[2]", "result": 142}, {"measurement": "PL, plasma, AVE", "setting": "[2]", "result": 309}, {"measurement": "TC, plasma, AVE", "setting": "[2]", "result": 422}, {"measurement": "Trigs, plasma, AVE", "setting": "[2]", "result": 140}, {"measurement": "CE, plasma, AVE", "setting": "Week 0, group average of test group, by calculation", "result": 280}, {"measurement": "plasma cholesterol ester, in words", "setting": "[3]", "result": "reduces"}, {"measurement": "plasma free cholesterol, in words", "setting": "[3]", "result": "reduces"}, {"measurement": "plasma phospholipid levels, in words", "setting": "[3]", "result": "reduces"}, {"measurement": "plasma total cholesterol, in words", "setting": "[3]", "result": "reduces"}, {"measurement": "plasma triglycerides, in words", "setting": "[3]", "result": "reduces"}, {"measurement": "CE", "setting": "week 4, AVE of 15 test animals", "result": 610}, {"measurement": "CE", "setting": "[4]", "result": "491 and 580 and 622 and 731 and 626 and 417 and 574 and 660 and 515 and 536 and 630 and 761 and 581 and 732 and 701"}, {"measurement": "CE", "setting": "week 8, AVE of 15 test animals", "result": 932}, {"measurement": "CE", "setting": "[5]", "result": "940 and 710 and 1119 and 865 and 1153 and 653 and 714 and 1085 and 715 and 670 and 1073 and 1048 and 839 and 1130 and 1267"}, {"measurement": "CE", "setting": "[6]", "result": 681}, {"measurement": "CE", "setting": "[7]", "result": "607 and 335 and 597 and 640 and 1002 and 477 and 445 and 476 and 675 and 687 and 960 and 869 and 339 and 904 and 1201"}, {"measurement": "FC", "setting": "week 4, AVE of 15 test animals", "result": 387}, {"measurement": "FC", "setting": "[4]", "result": "308 and 344 and 354 (2×) and 408 and 412 and 256 and 366 and 386 and 320 and 286 and 396 and 462 and 516 and 636"}, {"measurement": "FC", "setting": "week 8, AVE of 15 test animals", "result": 350}, {"measurement": "FC", "setting": "[5]", "result": "322 and 294 (2×) and 386 and 318 and 392 and 290 and 388 and 308 (2×) and 286 and 362 and 366 and 404 and 530"}, {"measurement": "FC", "setting": "[6]", "result": 322}, {"measurement": "FC", "setting": "[7]", "result": "291 and 205 and 287 and 296 and 418 and 242 and 229 and 269 and 315 and 312 and 419 and 386 and 219 and 413 and 535"}, {"measurement": "PL", "setting": "week 4, AVE of 15 test animals", "result": 514}, {"measurement": "PL", "setting": "[4]", "result": "422 and 482 and 452 and 560 and 526 and 320 and 506 and 556 and 446 and 416 and 516 and 580 and 510 and 666 and 750"}, {"measurement": "PL", "setting": "week 8, AVE of 15 test animals", "result": 493}, {"measurement": "PL", "setting": "[5]", "result": "416 and 456 and 474 and 448 and 516 (2×) and 424 and 480 and 488 and 436 and 440 and 556 and 470 and 540 and 728"}, {"measurement": "PL", "setting": "[6]", "result": 434}, {"measurement": "PL", "setting": "[7]", "result": "366 and 318 and 320 and 432 and 491 and 321 and 363 and 394 and 374 and 423 and 536 and 521 and 340 and 575 and 741"}, {"measurement": "TC", "setting": "week 4, AVE of 15 test animals", "result": 997}, {"measurement": "TC", "setting": "[4]", "result": "799 and 924 and 976 and 1139 and 1038 and 673 and 940 and 1046 and 835 and 822 and 1026 and 1223 and 935 and 1248 and 1337"}, {"measurement": "TC", "setting": "week 8, AVE of 15 test animals", "result": 1282}, {"measurement": "TC", "setting": "[5]", "result": "1262 and 1004 and 1505 and 1183 and 1545 and 943 and 1008 and 1473 and 1023 and 956 and 1435 and 1414 and 1147 and 1534 and 1797"}, {"measurement": "TC", "setting": "[6]", "result": 1003}, {"measurement": "TC", "setting": "[7]", "result": "898 and 540 and 884 and 937 and 1420 and 719 and 674 and 745 and 990 and 999 and 1379 and 1255 and 558 and 1317 and 1736"}, {"measurement": "Trigs", "setting": "week 4, AVE of 15 test animals", "result": 58}, {"measurement": "Trigs", "setting": "[4]", "result": "18 (2×) and 39 and 28 and 85 and 59 (2×) and 46 and 108 and 33 and 44 (2×) and 67 and 80 and 144"}, {"measurement": "Trigs", "setting": "week 8, AVE of 15 test animals", "result": 57}, {"measurement": "Trigs", "setting": "[5]", "result": "34 (3×) and 31 (2×) and 51 (2×) and 48 and 53 and 43 and 75 and 63 and 39 and 67 and 195"}, {"measurement": "Trigs", "setting": "[6]", "result": 55}, {"measurement": "Trigs", "setting": "[7]", "result": "27 and 49 and 10 and 37 (2×) and 18 and 39 (2×) and 13 and 25 and 74 and 89 and 97 and 112 and 158"}]}
